This is an account of results in ChEMBL document CHEMBL1130358, “DIARYLETHER INHIBITORS OF FARNESYL-PROTEIN TRANSFERASE” (Bioorg Med Chem Lett, 1997).

Assay [1] deals with Rat1. Briefly: 90% reduction in v-raf (Raf1a1) transformed RAT1 cell colony size and number in soft agar assay. It is filed as functional. As to conditions: Rattus norvegicus.
The target of assay [2] is Protein farnesyltransferase (Bos taurus, UniProt P29702+P49355). Briefly: Inhibition of the Farnesyltransferase catalyzed incorporation of [3H]FPP into recombinant Ha-Ras by 50% in bovine brain at a concentration of ca. 1 nM. It is filed as tissue-based.
Assay [3] deals with Rat1. Briefly: 90% reduction in v-Ha-ras (Ras2B) transformed RAT1 cell colony size and number in soft agar assay. Particulars: Rattus norvegicus. It counts as functional.
Assay [4] concerns the target Geranylgeranyl transferase type I (Bos taurus, UniProt P29702+Q5EAD5). The assay can be described thus: Inhibition of Geranylgeranyl transferase type I, an enzyme that recognizes CaaX sequences containing leucine as the terminal residue. It is filed as protein-complex assay.

Broadly, the IC90 is the concentration at which the effect reaches the 90% level. A high value points to weaker potency. A word on the IC50: it is the concentration that gives 50% inhibition. `N[C@@H](CS)CNc1ccc(Oc2cccc(C(=O)O)c2)cc1`: the IC90 with Rat1 [1] and in the assay with Rat1 [3] was over 50 µM throughout. For the same molecule, the IC50 in assay [2] is 0.403 µM.
With `N[C@@H](CS)CNc1ccc(Oc2ccccc2)cc1`, the IC50 in assay [4] is 5 µM; in assay [2], 0.46 µM. Further, the IC90 with Rat1 [1] and in the assay on Rat1 [3] was 10 µM each time.
In the case of `N[C@@H](CS)CNc1ccc(Oc2cccc(CO)c2)cc1`, the figures for the IC90 with Rat1 [1] and with Rat1 [3] were 30 µM and about 30 µM, respectively. The IC50 in assay [2] was found to be 0.335 µM.
Take `COC(=O)c1ccc(Oc2cccc(NC(=O)[C@@H](N)CS)c2)cc1`: the IC50 in assay [2] was over 100 µM.
Same read-out and setting: then `Cc1cccc(Oc2cccc(NC[C@@H](N)CS)c2)c1`, with 0.33 µM.
With `Cc1cccc(Oc2ccc(NC[C@@H](N)CS)cc2)c1`, the IC90 in the assay with Rat1 [1] and in the assay on Rat1 [3] was 10 µM each time. For the same molecule, the IC50 in assay [2] amounted to 0.615 µM.
For the molecule `N[C@@H](CS)C(=O)Nc1cccc(Oc2ccc(C(=O)O)cc2)c1`, the IC50 in assay [2] was over 100 µM.
Same read-out and setting: next, `N[C@@H](CS)C(=O)Nc1ccc(Oc2cccc(C(=O)O)c2)cc1`: 16 µM.
Consider `N[C@@H](CS)CNc1cccc(Oc2ccccc2)c1`, for which, in assay [2], the IC50 turned out to be 2.3 µM.
Regarding `N[C@@H](CS)C(=O)Nc1cccc(Oc2cccc(C(=O)O)c2)c1`, the IC50 in assay [2] came out at 6.9 µM.
In the case of `N[C@@H](CS)C(=O)Nc1ccc(Oc2ccc(C(=O)O)cc2)cc1`, the IC50 in assay [2] was determined as 39 µM.
On the same count and under the same terms, then `COC(=O)c1cccc(Oc2cccc(NC(=O)[C@@H](N)CS)c2)c1`, with 45 µM; and `N[C@@H](CS)CNc1ccc(Oc2ccc(C(=O)O)cc2)cc1`, with 3.15 µM.
In the case of `COC(=O)c1cccc(Oc2ccc(NC[C@@H](N)CS)cc2)c1`, the IC50 in assay [4] came out at 2.3 µM; in assay [2], 0.65 µM. Besides, the IC90 with Rat1 [1] and with Rat1 [3] was 10 µM throughout.
With `COC(=O)c1ccc(Oc2ccc(NC(=O)[C@@H](N)CS)cc2)cc1`, the concentration for half-maximal inhibition (IC50) in assay [2] was over 100 µM.
With `N[C@@H](CS)CNc1cccc(Oc2cccc(C(=O)O)c2)c1`, the IC50 came to 5.8 µM in assay [4] and 0.25 µM in assay [2]. Moreover, the IC90 with Rat1 [1] and in the assay with Rat1 [3] was over 50 µM in each case.
Take `N[C@@H](CS)CNc1cccc(Oc2ccc(C(=O)O)cc2)c1`: in assay [2], the IC50 came out at 3.8 µM.
In the case of `COC(=O)c1cccc(Oc2ccc(NC(=O)[C@@H](N)CS)cc2)c1`, the IC50 in assay [2] worked out at 45 µM.
